Publication PMC5712521, “Dendrogenin A drives LXR to trigger lethal autophagy in cancers” (Nature Communications, 2017)

Experiments:
[1] = test system: B16F10 cells; experiment: RT-qPCR of LXR-responsive genes; type: cell-based, mouse; details: 8 h, 2.5 µM DDA, 10 µM 22(R)HC, 1 µM GW, 100 nM TO, vs vehicle
Method: (§1) Total RNA was extracted from tumor cells or MEFs using an RNA Extraction kit (Qiagen) or Trizol (Invitrogen), respectively, and was quantified with NanoDrop. Complementary DNA (cDNA) synthesis was performed with 1 μg RNA iScript Reverse Transcriptase (Bio-Rad). 25 ng cDNA was amplified using SyBR Supermix (Bio-Rad). RNA expression of the different genes of interest (Supplementary Tables 1, 2) were determined using the ΔΔCT method, where the difference in the threshold cycle (ΔCT) values of the target gene and the housekeeping gene for each sample was normalized to the ΔCT value of the untreated sample.
(§2) Supplementary Fig. 4. a R egulat ion of LXR-responsive genes b y D DA and other k nown LXR
(§3) ligands in B16F10 and SKMEL- 28 cells transfected with s iRN A targeting LXRβ ( siLXRβ) or
(§4) with contro l siRN A scram ble (siSC). Cells were treated for 8 h with either solvent vehicle, 2.5
(§5) µM DD A, 10 µM 22(R) hydrox ycholesterol (22(R)HC), 1 µM GW 3965 (GW ) or 100 nM
(§6) T O901317 (T O). […]

[2] = test system: SKMEL-28 cells; experiment: RT-qPCR of LXR-responsive genes; type: cell-based, human; details: 8 h, 2.5 µM DDA, 10 µM 22(R)HC, 1 µM GW, 100 nM TO, vs vehicle
Method: as §1, §2, §3, §4, §5, §6

[3] = test system: B16F10 cells; experiment: Sterol analysis by GC/MS; type: cell-based, mouse; details: B16F10, 24 h, 10 µM 22(R)HC, 1 µM GW, 100 nM TO
Method: (§7) Sterols in cell homogenates were extracted with a solvent mixture containing chloroform/methanol 2/1 (v/v) spiked with epicoprostanol as the internal standard. Lipids were partitioned in chloroform after the addition of saline and saponified by methanolic potassium hydroxide (0.5 N, 60 °C, 15 min). The fatty acids released were methylated with BF3-methanol (12%, 60 °C, 15 min) to not interfere with the chromatography of sterols. The sterols were re-extracted in hexane and silylated, as described previously. The trimethylsilylether derivatives of the sterols were separated by gas chromatography (GC) (Hewlett–Packard 6890 series) in a medium polarity capillary column RTX-65, (65% diphenyl 35% dimethyl polysiloxane, length 30 m, diameter 0.32 mm, film thickness 0.25 μm (Restesk, Evry, France)). The mass spectrometer (Agilent 5975 inert XL) in series with the GC was set up for the detection of positive ions. Ions were produced in the electron impact mode at 70 eV. Sterols were identified by the fragmentogram in the scanning mode and quantified by selective monitoring of the specific ions after normalization with the internal standard epicoprostanol and calibration with weighed standards. […]
Anal yses were perform ed by GC/MS. f Quantification of sterols accumulated in
m elanom a cells after 24 h treatm ent with 10 µM 22(R) HC, 1 µ M GW , 100 nM T O or solvent
(§8) vehicle. […]

[4] = test system: SKMEL-28 cells; experiment: Sterol analysis by GC/MS; type: cell-based, human; details: SKMEL-28, 24 h; 10 µM 22(R)HC, 1 µM GW, 100 nM TO; GC/MS
Method: as §7
Quantification of sterols ac cum ulation in SKMEL- 2 8 c ells either expressing LXRβ (shCT L) or with LXRβ (sh3 or sh4LXR β) k nock ed down after 24 h treatm ent with 2.5 µ M DD A or solvent vehicle. Anal yses were perform ed by GC/MS. f Quantification of sterols accumulated in m elanom a cells after 24 h treatm ent with 10 µM 22(R) HC, 1 µ M GW , 100 nM T O or solvent […]
as §8

[5] = test system: HL60 cells; experiment: qRT-PCR of Nur77 and NOR1; type: cell-based, human; details: HL60, 24 h; 5 µM DDA, 2 µM TO, 2 µM GW, 10 µM 22(R)HC
Method: as §1
(§9) Supplementary Fig. 6. […]
(§10) D ata are expressed relative to the control (solvent vehic le). D ata from b, f, g, h, j, p, q ar e the m eans ± S.E.M. of 3 independent experiments performed in triplicate (*P<0.05, **P<0.01, ***P<0.001, t test). Images are representative of 3 independent experim ents.

[6] = test system: KG1 cells; experiment: qRT-PCR of Nur77 and NOR1; type: cell-based, human; details: KG1, 24 h; 5 µM DDA, 2 µM TO, 2 µM GW, 10 µM 22(R)HC
Method: as §1, §9, §10

`O=C(O)Cc1cccc(OCCCN(Cc2cccc(C(F)(F)F)c2Cl)CC(c2ccccc2)c2ccccc2)c1` [GW, GW3965] was tested, and the “ABCA1 mRNA” value ([1]; B16F10, siCT) was 14.3±1.6 fold, the “ABCG1 mRNA” value ([1]; B16F10, siCT) was 2.1±0.4 fold and the “ABCG5 mRNA” value ([1]; B16F10, siCT) was 1.9±0.5 fold. For the same compound, the “ABCG8 mRNA” value ([1]; B16F10, siCT) was 1.7±0.2 fold, the “LC3A mRNA” value ([1]; B16F10, siCT) was 1.1±0.1 fold and the “LC3B mRNA” value ([1]; B16F10, siCT) was 1.1±0.1 fold. The “LDLR mRNA” value ([1]; B16F10, siCT) was 2.0±0.1 fold, the “NOR1 mRNA” value ([1]; B16F10, siCT) was 1.6±0.2 fold and the “Nur77 mRNA” value ([1]; B16F10, siCT) was 1.0±0.3 fold. For the same compound, the “SCD1 mRNA” value ([1]; B16F10, siCT) was 1.9±0.2 fold, the “SREBP1 mRNA” value ([1]; B16F10, siCT) was 3.1±0.2 fold and the “SULT2b1b mRNA” value ([1]; B16F10, siCT) was 1.2±0.1 fold. The “ABCA1 mRNA” value ([1]; B16F10, siLXRβ) was 2.6±0.1 fold, the “ABCG1 mRNA” value ([1]; B16F10, siLXRβ) was 1.1±0.2 fold and the “ABCG5 mRNA” value ([1]; B16F10, siLXRβ) was 0.9±0.1 fold. For the same compound, the “ABCG8 mRNA” value ([1]; B16F10, siLXRβ) was 0.9±0.1 fold, the “LC3A mRNA” value ([1]; B16F10, siLXRβ) was 1.1±0.2 fold and the “LC3B mRNA” value ([1]; B16F10, siLXRβ) was 1.1±0.3 fold. For the same compound, the “LDLR mRNA” value ([1]; B16F10, siLXRβ) was 1.0±0.2 fold, the “NOR1 mRNA” value ([1]; B16F10, siLXRβ) was 1.0±0.1 fold and the “Nur77 mRNA” value ([1]; B16F10, siLXRβ) was 0.9±0.2 fold. The “SCD1 mRNA” value ([1]; B16F10, siLXRβ) was 1.1±0.1 fold, the “SREBP1 mRNA” value ([1]; B16F10, siLXRβ) was 1.1±0.2 fold and the “SULT2b1b mRNA” value ([1]; B16F10, siLXRβ) was 1.0±0.1 fold. The “ABCA1 mRNA” value ([2]; SKMEL-28, siCT) was 15.1±2 fold, the “ABCG1 mRNA” value ([2]; SKMEL-28, siCT) was 3.2±0.5 fold and the “ABCG5 mRNA” value ([2]; SKMEL-28, siCT) was 3.1±0.5 fold. The “ABCG8 mRNA” value ([2]; SKMEL-28, siCT) was 1.5±0.1 fold, the “LC3A mRNA” value ([2]; SKMEL-28, siCT) was 0.8±0.2 fold and the “LC3B mRNA” value ([2]; SKMEL-28, siCT) was 0.9±0.1 fold. For the same compound, the “LDLR mRNA” value ([2]; SKMEL-28, siCT) was 1.0±0.2 fold, the “NOR1 mRNA” value ([2]; SKMEL-28, siCT) was 1.5±0.1 fold and the “Nur77 mRNA” value ([2]; SKMEL-28, siCT) was 0.7±0.2 fold. For the same compound, the “SCD1 mRNA” value ([2]; SKMEL-28, siCT) was 1.6±0.1 fold, the “SREBP1 mRNA” value ([2]; SKMEL-28, siCT) was 2.6±0.3 fold and the “SULT2B1b mRNA” value ([2]; SKMEL-28, siCT) was 2.8±0.1 fold. For the same compound, the “ABCA1 mRNA” value ([2]; SKMEL-28, siLXRβ) was 2.2±0.3 fold, the “ABCG1 mRNA” value ([2]; SKMEL-28, siLXRβ) was 1.2±0.1 fold and the “ABCG5 mRNA” value ([2]; SKMEL-28, siLXRβ) was 1.1±0.1 fold. For the same compound, the “ABCG8 mRNA” value ([2]; SKMEL-28, siLXRβ) was 0.8±0.1 fold, the “LC3A mRNA” value ([2]; SKMEL-28, siLXRβ) was 1.0±0.3 fold and the “LC3B mRNA” value ([2]; SKMEL-28, siLXRβ) was 1.1±0.3 fold. For the same compound, the “LDLR mRNA” value ([2]; SKMEL-28, siLXRβ) was 0.9±0.1 fold, the “NOR1 mRNA” value ([2]; SKMEL-28, siLXRβ) was 0.8±0.1 fold and the “Nur77 mRNA” value ([2]; SKMEL-28, siLXRβ) was 0.9±0.2 fold. For the same compound, the “SCD1 mRNA” value ([2]; SKMEL-28, siLXRβ) was 1.1±0.1 fold, the “SREBP1 mRNA” value ([2]; SKMEL-28, siLXRβ) was 1.5±0.2 fold and the “SULT2B1b mRNA” value ([2]; SKMEL-28, siLXRβ) was 1.1±0.2 fold. The “Sterol amount/total sterol: 8-DHC” value [3] was 0.05± 0.005, the “Sterol amount/total sterol: zymostenol” value [3] was 0.11 ± 0.08 and the “Sterol amount/total sterol: 8-DHC” value [4] was 0.07± 0.01. The “Sterol amount/total sterol: zymostenol” value [4] was 0.29± 0.09, the “NOR1 mRNA levels (Fold over control)” value [5] was 0.3 fold and the “Nur77 mRNA levels (Fold over control)” value [5] was 1.3 fold. The “NOR1 mRNA levels (Fold over control)” value [6] was 1.8 fold and the “Nur77 mRNA levels (Fold over control)” value [6] was 0.8 fold.
